Test results from patent publication US7414041B2 (Trustees Of Tufts College, priority 1991, dated 2008).
Values after ≈ are worked out from the molar mass of the structure shown. Like-named read-outs stand apart in the source and are kept apart here.

How the values were obtained:
[1] = biological target: T1, efflux protein (Escherichia coli, UniProt P02980); experiment: everted membrane vesicle assay, blocking activity of 13-S-derivatives (Ki); type: biochemical
T1 sequence (P02980 1-401): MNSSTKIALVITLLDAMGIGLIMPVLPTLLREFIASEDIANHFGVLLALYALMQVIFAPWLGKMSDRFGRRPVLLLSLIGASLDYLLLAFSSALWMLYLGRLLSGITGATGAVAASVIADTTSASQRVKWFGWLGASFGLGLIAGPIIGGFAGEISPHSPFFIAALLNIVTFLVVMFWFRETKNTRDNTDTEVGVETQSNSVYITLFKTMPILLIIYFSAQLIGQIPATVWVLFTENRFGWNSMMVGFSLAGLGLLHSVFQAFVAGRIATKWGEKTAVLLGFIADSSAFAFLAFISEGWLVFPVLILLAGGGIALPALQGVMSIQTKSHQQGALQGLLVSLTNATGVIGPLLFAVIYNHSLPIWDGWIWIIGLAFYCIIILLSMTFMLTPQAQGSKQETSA

[2] = test system: E. coli Tc^s (MI 300-225); experiment: susceptibility testing MIC/MLC, drug alone; type: cell-based
[3] = test system: E. coli Class A Tc^r (DI-299); type: cell-based
[4] = test system: E. coli Class β Tc^r (DI-209); type: cell-based
[5] = test system: S. aureus Tc^s (RN450); experiment: susceptibility testing MIC/MLC, drug alone; type: cell-based
[6] = test system: S. aureus Tc^r (RN4250); type: cell-based; conditions: Tc^r RN4250
[7] = test system: E. faecalis Tc^s (ATCC9790r); experiment: susceptibility testing MIC/MLC, drug alone; type: cell-based
[8] = test system: E. faecalis Tc^r (L) (ATCC9790r/Tet L); type: cell-based; conditions: Tc^r (L)
[9] = test system: E. faecalis Tc^r (M) (ATCC9790r/Tet M); type: cell-based
[10] = biological target: T2, TET proteins responsible for tetracycline efflux (Class B tetracycline resistance determinant, strain D1-209) (Escherichia coli, UniProt P02980); experiment: biochemical; design: species or system E. coli; conditions: uptake at 2.5 minutes, about 4 μM 3H-tetracycline; read-out: IC50
T2 construct: Everted vesicles, to which the TET proteins responsible for tetracycline efflux are attached; endogenous in cells; host or cells: E. coli strain D1-209 (everted membrane vesicles)

[11] = test system: E. coli ML308; experiment: MIC of tetracycline susceptible strains, C5 esters; type: cell-based; conditions: E. coli ML308, alone
[12] = test system: S. aureus 450; experiment: MIC of tetracycline susceptible strains, C5 esters; type: cell-based; conditions: S. aureus 450, alone
[13] = test system: E. faecalis ATCC 9790; experiment: MIC of tetracycline susceptible strains, C5 esters; type: cell-based; conditions: E. faecalis ATCC 9790, alone
[14] = test system: E. coli D1-299 (Tet A); type: cell-based;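 further: E. coli at roughly 5×10^5 cells/ml in L broth, analog and doxycycline alone or mixed in two-fold dilutions from 50 to under 1 µg/ml, 18 h at 37 °C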
[15] = test system: S. aureus 4250 (Tet K); experiment: MIC/MLC chart, analog with and without doxycycline; type: cell-based
[16] = test system: E. faecalis 158 (Tet L); experiment: MIC/MLC chart, analog with and without doxycycline; type: cell-based
[17] = test system: E. faecalis 211 (Tet M); experiment: MIC/MLC chart, analog with and without doxycycline; type: cell-based;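 further: broth checkerboard of two-fold drug dilutions, alone and mixed with doxycycline, bacteria near 5×10^5 cells/ml, 18 h incubation at 37 °C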

Which Ki [1] does the source give for CCSCC1c2cccc(O)c2C(=O)C2=C(O)C3(O)C(=O)C(C(N)=O)=C(O)C(N(C)C)C3CC21 (stereo not drawn) [Ethyl, 6-deoxy-13-(ethylmercapto) tetracycline] here?
The Ki was 0.4 µg/mL (≈ 0.819 µM).

And the “MIC” value ([2]; Tc^s, 1st column)?
The value was 6 ± 0.26 µg.

And the “MIC” value ([2]; Tc^s, 2nd column)?
Its value is 60 µg.

What about the MIC ([2]; susceptible E. coli) of the same compound?
Its MIC is 5 µg/mL (≈ 10.2 µM).

What about the “MIC” value ([3]; 1st column) of the same compound?
The value was 14 ± 4 µg.

And the “MIC” value ([3]; 2nd column)?
The value was 46 ± 6 µg.

What about the “MIC” value ([4]; 1st column) of the same compound?
The value was 36 ± 16 µg.

What about the “MIC” value ([4]; 2nd column) of the same compound?
Its value is 60 ± 10 µg.

And the “MIC” value [5]?
The value was 0.5 ± 0.25 µg.

And the “MLC” value ([5]; kills 99.9%)?
Its value is 4 µg.

What about the “MIC” value [6] of the same compound?
The value was 5 ± 2 µg.

And the “MLC” value ([6]; kills 99.9%)?
The value was 30 ± 10 µg.

What about the “MIC” value ([7]; 1st column) of the same compound?
The value was 1 ± 0.6 µg.

And the “MIC” value ([7]; 2nd column)?
Its value is 40 ± 0.25 µg.

What about the “MIC” value ([8]; 1st column) of the same compound?
Its value is 4 ± 1 µg.

And the “MIC” value ([8]; 2nd column)?
The value was 100 ± 0.25 µg.

And the “MIC” value ([9]; 1st column)?
The value was 25 ± 6 µg.

And the “MIC” value ([9]; 2nd column)?
Its value is >200 µg.

With “13-propylthio-5-proprionate-6-deoxy-tetracycline [Cmpd 8]” as the compound, how does the IC50 [10] read?
Its IC50 is 1400 nM.

And the MIC [11]?
Its MIC is 20 µg/mL.

What about the MIC [12] of the same compound?
Its MIC is “.3 µg/mL”.

What about the MIC [13] of the same compound?
Its MIC is 2.5 µg/mL.

And the “growth / no growth (MIC) / killing (MLC) symbol” value (shortened to “growth / no growth”) ([14]; analog 1.56 + doxy 1.55 μg/ml)?
Its value is “+”.

And the “growth / no growth” value ([14]; analog 1.56 + doxy 3.1 μg/ml)?
The value was “+”.

What about the “growth / no growth” value ([14]; analog 1.56 + doxy 6.2 μg/ml) of the same compound?
Its value is “+”.

What about the “growth / no growth” value ([14]; analog 1.56 + doxy 12.3 μg/ml) of the same compound?
The value was “◯”.

What about the “growth / no growth” value ([14]; analog 3.12 + doxy 1.53 μg/ml) of the same compound?
Its value is “+”.

And the “growth / no growth” value ([14]; analog 3.12 + doxy 3.05 μg/ml)?
Its value is “+”.

And the “growth / no growth” value ([14]; analog 3.12 + doxy 6.1 μg/ml)?
The value was “+”.

What about the “growth / no growth” value ([14]; analog 6.25 + doxy 5.9 μg/ml) of the same compound?
Its value is “+”.

What about the “growth / no growth” value ([14]; analog 6.25 + doxy 3.0. μg/ml) of the same compound?
The value was “+”.

And the “growth / no growth” value ([14]; analog 6.25 + doxy […])?
Its value is “+”.

And the “growth / no growth” value ([14]; analog 12.5 + doxy 2.8 μg/ml)?
Its value is “+”.

What about the “growth / no growth” value ([14]; analog 12.5 + doxy 5.5 μg/ml) of the same compound?
Its value is “+”.

What about the “growth / no growth” value ([14]; analog 12.5 + doxy […]) of the same compound?
Its value is “+”.

What about the “growth / no growth” value ([14]; analog 25 + doxy 2.4 μg/ml) of the same compound?
The value was “+”.

And the “growth / no growth” value ([14]; analog 25 + doxy 4.7 μg/ml)?
The value was “+”.

And the “growth / no growth” value ([14]; analog 25 + doxy […])?
Its value is “+”.

And the “growth / no growth” value ([14]; analog 50 + doxy 1.56 μg/ml)?
Its value is “+”.

What about the “growth / no growth” value ([14]; analog 50 + doxy 3.12 μg/ml) of the same compound?
Its value is “+”.

And the “growth / no growth” value ([14]; analog 50 + doxy .78 μg/ml)?
The value was “+”.

What about the “growth / no growth” value ([14]; analog .195 + doxy 1.56 μg/ml) of the same compound?
Its value is “+”.

And the “growth / no growth” value ([14]; analog .195 + doxy 3.12 μg/ml)?
Its value is “+”.

What about the “growth / no growth” value ([14]; analog .195 + doxy 6.25 μg/ml) of the same compound?
Its value is “+”.

What about the “growth / no growth” value ([14]; analog .195 + doxy 12.5 μg/ml) of the same compound?
Its value is “+”.

And the “growth / no growth” value ([14]; analog .39 + doxy 1.56 μg/ml)?
The value was “+”.

And the “growth / no growth” value ([14]; analog .39 + doxy 3.12 μg/ml)?
Its value is “+”.

And the “growth / no growth” value ([14]; analog .39 + doxy 6.25 μg/ml)?
The value was “+”.

And the “growth / no growth” value ([14]; analog .39 + doxy 12.5 μg/ml)?
The value was “+”.

And the “growth / no growth” value ([14]; analog .78 + doxy 1.56 μg/ml)?
The value was “+”.

And the “growth / no growth” value ([14]; analog .78 + doxy 3.12 μg/ml)?
The value was “+”.

What about the “growth / no growth” value ([14]; analog .78 + doxy 6.23 μg/ml) of the same compound?
The value was “+”.

What about the “growth / no growth” value ([14]; analog .78 + doxy 12.4 μg/ml) of the same compound?
Its value is “+”.

And the “growth / no growth” value ([14]; analog alone 1.56 μg/ml)?
Its value is “+”.

And the “growth / no growth” value ([14]; analog alone 3.12 μg/ml)?
Its value is “+”.

What about the “growth / no growth” value ([14]; analog alone 6.25 μg/ml) of the same compound?
The value was “+”.

What about the “growth / no growth” value ([14]; analog alone 12.5 μg/ml) of the same compound?
The value was “+”.

What about the “growth / no growth” value ([14]; analog alone 25.0 μg/ml) of the same compound?
Its value is “+”.

And the “growth / no growth” value ([14]; analog alone 50.00 μg/ml)?
The value was “+”.

And the “growth / no growth” value ([14]; analog alone .195 μg/ml)?
The value was “+”.

What about the “growth / no growth” value ([14]; analog alone .39 μg/ml) of the same compound?
The value was “+”.

What about the “growth / no growth” value ([14]; analog alone .78 μg/ml) of the same compound?
The value was “+”.

And the “growth / no growth” value ([15]; analog .195 + doxy 1.56 μg/ml)?
Its value is “+”.

What about the “growth / no growth” value ([15]; analog .195 + doxy 3.12 μg/ml) of the same compound?
Its value is “◯”.

What about the “growth / no growth” value ([15]; analog alone .195 μg/ml) of the same compound?
Its value is “+”.

And the “growth / no growth” value ([16]; analog .195 + doxy 1.56 μg/ml)?
The value was “+”.

What about the “growth / no growth” value ([16]; analog .195 + doxy 3.12 μg/ml) of the same compound?
Its value is “+”.

And the “growth / no growth” value ([16]; analog .39 + doxy 1.56 μg/ml)?
Its value is “◯”.

And the “growth / no growth” value ([16]; analog .39 + doxy 3.12 μg/ml)?
Its value is “◯”.

And the “growth / no growth” value ([16]; analog alone .195 μg/ml)?
Its value is “+”.

And the “growth / no growth” value ([16]; analog alone .39 μg/ml)?
Its value is “+”.

What about the “growth / no growth” value ([16]; analog alone .78 μg/ml) of the same compound?
Its value is “+”.

And the “growth / no growth” value ([17]; analog 1.56 + doxy 1.55 μg/ml)?
Its value is “+”.

And the “growth / no growth” value ([17]; analog 1.56 + doxy 3.1 μg/ml)?
Its value is “+”.

What about the “growth / no growth” value ([17]; analog 1.56 + doxy 6.2 μg/ml) of the same compound?
The value was “+”.

And the “growth / no growth” value ([17]; analog 3.12 + doxy 1.53 μg/ml)?
The value was “◯”.

And the “growth / no growth” value ([17]; analog 3.12 + doxy 3.05 μg/ml)?
The value was “◯”.

And the “growth / no growth” value ([17]; analog .195 + doxy 1.56 μg/ml)?
The value was “+”.

And the “growth / no growth” value ([17]; analog .195 + doxy 3.12 μg/ml)?
Its value is “+”.

And the “growth / no growth” value ([17]; analog .195 + doxy 6.25 μg/ml)?
Its value is “+”.

And the “growth / no growth” value ([17]; analog .195 + doxy 12.5 μg/ml)?
The value was “+”.

What about the “growth / no growth” value ([17]; analog .39 + doxy 1.56 μg/ml) of the same compound?
Its value is “+”.

And the “growth / no growth” value ([17]; analog .39 + doxy 3.12 μg/ml)?
Its value is “+”.

What about the “growth / no growth” value ([17]; analog .39 + doxy 6.25 μg/ml) of the same compound?
The value was “+”.

What about the “growth / no growth” value ([17]; analog .39 + doxy 12.5 μg/ml) of the same compound?
Its value is “+”.

What about the “growth / no growth” value ([17]; analog .78 + doxy 1.56 μg/ml) of the same compound?
The value was “+”.

What about the “growth / no growth” value ([17]; analog .78 + doxy 3.12 μg/ml) of the same compound?
Its value is “+”.

And the “growth / no growth” value ([17]; analog .78 + doxy 6.23 μg/ml)?
Its value is “+”.

What about the “growth / no growth” value ([17]; analog alone 1.56 μg/ml) of the same compound?
The value was “+”.

What about the “growth / no growth” value ([17]; analog alone 3.12 μg/ml) of the same compound?
Its value is “◯”.

What about the “growth / no growth” value ([17]; analog alone .195 μg/ml) of the same compound?
Its value is “+”.

What about the “growth / no growth” value ([17]; analog alone .39 μg/ml) of the same compound?
Its value is “+”.

What about the “growth / no growth” value ([17]; analog alone .78 μg/ml) of the same compound?
Its value is “+”.
